These results are taken from patent EP0684818B1, “METHOD OF REVERSING RESISTANCE OF HIV-1 STRAINS TO ZIDOVUDINE” (priority 1993, dated 1994).

Values after ≈ are worked out from the molar mass of the structure shown. Values joined by “and” are separate entries in the source; they are usually repeats but may differ in a detail not shown here. Equal values may be shown once. Read-outs that look alike come from different tables or passages of the source.

In general, IC50 refers to the concentration that inhibits the measured activity by half.

The test system of assay [1] is HIV isolates from the patient. Briefly: Sensitivity of HIV isolates from the patient to antiviral compounds (p24 antigen production in co-culture with PHA-stimulated donor lymphocytes). It counts as cell-based, HIV-1. To be noted: for IC50: mutations I135T, Q207E, T215F, K219Q, 50% inhibition of p24 antigen production, repeated experiment nos. As to the method: A standard HIV-1 isolation from fresh lymphocytes and fresh plasma was performed at several time points (two months (60 days) before the start of therapy, 1 month (30 days) and 4 months (120 days) after start of the therapy).
Plasma or lymphocytes from the patient were co-cultured with 3·10^6 PHA stimulated (phytohemagglutinin, Sigma, St. Louis, Mo., USA) HIV-1 negative donor lymphocytes. Cultures were performed in a 5% CO2 atmosphere at 37°C. Medium was replaced every 3 to 4 days. When cell death occured, fresh PHA-stimulated donor lymphocytes were added. Every 3 to 4 days, the cultures were monitored for cytopathic effect and for the presence of HIV-1 p24 antigen in the supernatant. Cultures were followed during 5 weeks. A sample was considered positive for virus if the concentration of p24 antigen in the supernatant of the co-culture (determined by a p24 antigen capture test) exceeded 1000 pg per milliliter on a single determination or > 200 pg per milliliter on two consecutive determinations. Supernatants of positive isolates were aliquoted and frozen at -70°C.
(§1) An aliquot of a positive isolate was co-cultured with several cultures of PHA-stimulated donor lymphocytes. Serial dilutions of the antiviral compound (α-[(2-nitrophenyl)-amino]-2,6-dichlorobenzeneacetamide (Co. I) or zidovudine) were added to the cultures. Cultures were performed in a 5% CO2 atmosphere at 37°C. Medium and drugs were replaced every 3 to 4 days. When cell death occured, fresh PHA-stimulated donor lymphocytes were added. The cultures were monitored for cytopathic effect and for the presence of p24 antigen in the supernatant. When p24 levels produced in the controls (without antiviral compound) exceeded 1000 pg per milliliter, a p24 antigen test was performed on all cultures treated with antivirals The concentration of antiviral compound that was needed to inhibit 50% of p24 antigen production of the controls, was calculated (IC50). The sensitivity of the isolates obtained from the patient was determined on several occasions at different times (experiment nos.). The nucleotide sequence of the reverse transcriptase was determined in order to identify mutations selected by exposure of the retrovirus to Co. I. The results obtained thus far are shown in table 1.

The next assay relates to Wild-type Strain IIIB. Briefly: Sensitivity of wild-type HIV-1 strain to antiviral compounds (p24 antigen production in PHA-stimulated donor lymphocytes). Type of assay: cell-based. The conditions noted are these: 50% inhibition of p24 antigen production, repeated experiment nos. As to the method:
as §1

[2] abbreviates: isolate after four months of Co. I therapy, novel mutation Y181C.
The mark [3] stands for this setting: isolate obtained two months before the therapy switch.

`NC(=O)C(Nc1ccccc1[N+](=O)[O-])c1c(Cl)cccc1Cl` (stereo not drawn) [Co.I, α-[(2-nitrophenyl)amino]-2,6-dichlorobenzeneacetamide]: the “sensitivity of the HIV-1 isolate (in words)” value in assay [1] (setting [2]) was “resistant”; in assay [1] (setting [3]) it was “sensitive”. The “IC50” value in assay [1] (patient isolate at time 120 days after start of Co. I therapy (400 mg t.i.d., po), Y181C) was over 10 µg/mL; in assay [1] (patient isolate at time -60 days (two months before start of Co. I therapy)) it was 0.041 µg/mL and 0.07 µg/mL and 0.073 µg/mL and 0.054 µg/mL.
Take `Cc1cn([C@H]2C[C@H](N=[N+]=[N-])[C@@H](CO)O2)c(=O)[nH]c1=O` [zidovudine, 3'-azido-3'-deoxythymidine]: the results for the “sensitivity of the HIV-1 isolate (in words)” value in assay [1] (setting [2]) and in assay [1] (setting [3]) were “acquired again significant sensitivity” and “resistant”, respectively. For the same compound, the “IC50” value in the assay on Wild-type Strain IIIB was 0.001 µg/mL and 0.0008 µg/mL; with Wild-type Strain IIIB (Human immunodeficiency virus 1, IIIB, Lymphocyte, read-out: IC50), 0.0011 µg/mL (≈ 4.12 nM).
